Experiments:
Format in all cases: functional, cell-based
RPMI-8226 = assay: Antiproliferative activity against human RPMI-8226 cells assessed as inhibition of cell proliferation incubated for 72 hrs by XTT assay; conditions: RPMI-8226, 72 h
MM1.S = assay: Antiproliferative activity against human MM1.S cells assessed as inhibition of cell proliferation incubated for 72 hrs by XTT assay
[1] = Antiproliferative activity against human MM1.R cells assessed as inhibition of cell proliferation incubated for 72 hrs by XTT assay; conditions: MM.1R

| Structure (SMILES) | IC50 (RPMI-8226) | IC50 (MM1.S) | IC50 [1] |
| --- | --- | --- | --- |
| CC(C)=CC[C@@]12O[C@@H]1C(=O)c1c(O)ccc(O)c1C2=O | 0.6 µM | 0.7 µM | 0.9 µM |
| CC(C)=CC[C@@]12O[C@@H]1C(=O)c1c(O)ccc(O[C@@H]3O[C@H](CO)[C@@H](O)[C@H](O)[C@H]3O)c1C2=O | 9.5 µM | 4.8 µM | 3.6 µM |
| CC(C)=CCC1=C(Cl)C(=O)c2c(O)ccc(O)c2C1=O | 12.9 µM |  |  |
| CC(C)(O)/C=C\C(O)=C1C(=O)c2c(O)ccc(O)c2C1=O | 9.6 µM | 14.7 µM | 6.1 µM |
| CC(C)=CC[C@@H]1C(=O)c2c(O)ccc(O)c2[C@@H]1O | 27.5 µM |  |  |
| CC(C)=CC[C@@]12O[C@@H]1C(O)c1c(O)ccc(O)c1C2=O (stereo partly drawn) | 18.6 µM |  |  |
| COC1=CC(=O)C=C(OC)C1=O [2,6-DIMETHOXYQUINONE] | 10.8 µM | 1.1 µM | 3 µM |
| CC(C)C[C@H](NC(=O)[C@H](Cc1ccccc1)NC(=O)c1cnccn1)B(O)O [BORTEZOMIB] | 0.0056 µM | 0.0032 µM | 0.0047 µM |
